Reference: ChEMBL document CHEMBL1201862, “PubChem BioAssay data set” (2004)
pEC50: −log10 of the molar value. Activity calls are given as the source filed them.

Tests used:
[1] = general mammalian cell viability loss – inhibitor set, cherry-pick, set 2, cytotoxicity control for miR-122 modulator project, dose response (AID 720697); type: functional, cell-based
[2] = OVCAR8 cell viability loss – plate reader, dry powder samples, PAX8 project, dose response (AID 743197); type: functional, cell-based; conditions: OVCAR-8
[3] = inhibitors acting on PAX2 in cells – cell-based, plate reader, dry powder samples, selectivity assay for PAX8 inhibitor project, dose response (AID 743048); type: functional;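 further: HEK293 cells carrying a WT1 promoter luciferase reporter driven by expressed Pax2; potency is for inhibition of Pax2 driven reporter signal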
[4] = COV434 cell viability loss – plate reader, dry powder, SA7, cytotoxicity control for PAX8 inhibitor project, dose response (AID 743145); type: functional, cell-based
[5] = PAX5 cellular inhibition readout – cell-based, plate reader, dry powder samples, selectivity assay for PAX8 inhibitor project, dose response (AID 743047); type: functional;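 further: HEK293 cells carrying a Pax5 driven CD19 promoter luciferase reporter; potency of inhibitors that lower reporter luminescence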
[6] = PAX8-dependent cell viability loss – plate reader, dry powder, dose response (AID 743049); type: functional, cell-based
[7] = OVCAR4 cell viability loss – plate reader, dry powder, SA11, cytotoxicity control for PAX8 inhibitor project, dose response (AID 743150); type: functional, cell-based; conditions: OVCAR-4
[8] = OVCAR-3 cell viability loss – plate reader, dry powder samples, PAX8 inhibitor project, dose response (AID 743044); type: functional, cell-based
[9] = CMV-driven luciferase expression suppression in HEK293 – cell-based, luminescence, dry powder, counter-screen for Pax8 inhibitor project, dose response (AID 743020); type: functional
Paired box protein Pax-8 = Paired box protein Pax-8 (Homo sapiens, UniProt Q06710); test: PAX8 transcriptional activity inhibition in RMG-I – RMG-I cells, luciferase, cherry-pick, dose response (AID 687027); type: functional, cell-based;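 further: luciferase reporter driven by Pax8 target thyroperoxidase promoter measured by SteadyGlo luminescence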
Paired box protein Pax-8, sequence (Q06710 whole entry): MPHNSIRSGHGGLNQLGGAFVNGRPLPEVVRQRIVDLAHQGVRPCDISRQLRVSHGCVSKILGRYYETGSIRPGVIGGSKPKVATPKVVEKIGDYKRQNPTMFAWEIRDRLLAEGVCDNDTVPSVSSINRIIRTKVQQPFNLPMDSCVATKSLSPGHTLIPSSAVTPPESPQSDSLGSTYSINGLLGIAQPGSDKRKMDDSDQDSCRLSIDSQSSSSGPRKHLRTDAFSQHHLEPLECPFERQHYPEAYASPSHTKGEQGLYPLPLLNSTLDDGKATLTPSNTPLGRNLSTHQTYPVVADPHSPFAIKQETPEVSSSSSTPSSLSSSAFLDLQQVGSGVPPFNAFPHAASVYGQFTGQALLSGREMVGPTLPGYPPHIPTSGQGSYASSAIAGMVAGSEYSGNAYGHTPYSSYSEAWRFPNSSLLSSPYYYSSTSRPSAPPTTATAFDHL

[10] = general cell-killing toxicity readout – plate reader, dry powder samples, cytotoxicity control for PAX8 inhibitor project, dose response (AID 743021); type: functional, cell-based
[11] = Shn3 3'UTR reporter signal decrease – cell-based, Clone20 osteoblasts, firefly luciferase, cherry-pick, set 2, Schnurri-3 inhibitor project, dose response (AID 720490); type: functional;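 further: actives lower the luminescence signal as inhibitors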
[12] = reduction of Shn3 3'UTR-driven luciferase in osteoblasts – cell-based, Clone20 osteoblasts, firefly luciferase, cherry-picked, dose response (AID 624132); type: functional;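 further: firefly luciferase luminescence from reporter carrying the Shn3 3'UTR in osteoblasts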
[13] = EF1alpha-driven Renilla reporter with control 3'UTR suppression – Clone20-Shn3RL cells, dual-Glo, cherry-pick, set 2, counter-screen for Shn3 3'UTR targeting project, dose response (AID 720724); type: functional, cell-based; conditions: Dual-Go Shn3RL
[14] = non-specific 3'UTR reporter inhibition in Clone20-Shn3RL – cell-based, Renilla luciferase, cherry-picked, counter-screen for Shn3 inhibitor project, dose response (AID 624133); type: functional
[15] = molecular target: T1, Trace amine-associated receptor 1 (Homo sapiens, UniProt Q96RJ0); test: Counterscreen for agonists of the human trace amine associated receptor 1 (hTAAR1): Fluorescence-based cell-based high throughput dose response assay to identify hTAAR1 agonist that also desensitize TAAR1 receptor response.; type: functional
T1 sequence (Q96RJ0 whole entry): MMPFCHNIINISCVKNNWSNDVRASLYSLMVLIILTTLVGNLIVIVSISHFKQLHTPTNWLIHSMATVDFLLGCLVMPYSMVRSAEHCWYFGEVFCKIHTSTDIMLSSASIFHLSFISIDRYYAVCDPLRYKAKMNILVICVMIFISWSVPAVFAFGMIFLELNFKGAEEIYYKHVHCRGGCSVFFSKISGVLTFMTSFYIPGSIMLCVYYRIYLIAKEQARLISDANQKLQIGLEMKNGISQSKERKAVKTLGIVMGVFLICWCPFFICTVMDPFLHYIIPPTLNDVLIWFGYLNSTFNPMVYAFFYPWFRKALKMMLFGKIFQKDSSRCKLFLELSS

[16] = molecular target: T1, Trace amine-associated receptor 1; test: Fluorescence-based cell-based high throughput dose response assay to identify agonists of the human trace amine associated receptor 1 (TAAR1).; type: functional
cells [17] = type: functional, cell-based
cells [18] = type: functional, cell-based; remark: listed apart in the source
[19] = molecular target: ATP-dependent translocase ABCB1 (Homo sapiens, UniProt P08183); test: P-gp JC-1 efflux blockers potency – Jurkat-DNR cells, flow cytometry, follow-up, dose response (AID 489002); type: functional
ATP-dependent translocase ABCB1, sequence (P08183 whole entry): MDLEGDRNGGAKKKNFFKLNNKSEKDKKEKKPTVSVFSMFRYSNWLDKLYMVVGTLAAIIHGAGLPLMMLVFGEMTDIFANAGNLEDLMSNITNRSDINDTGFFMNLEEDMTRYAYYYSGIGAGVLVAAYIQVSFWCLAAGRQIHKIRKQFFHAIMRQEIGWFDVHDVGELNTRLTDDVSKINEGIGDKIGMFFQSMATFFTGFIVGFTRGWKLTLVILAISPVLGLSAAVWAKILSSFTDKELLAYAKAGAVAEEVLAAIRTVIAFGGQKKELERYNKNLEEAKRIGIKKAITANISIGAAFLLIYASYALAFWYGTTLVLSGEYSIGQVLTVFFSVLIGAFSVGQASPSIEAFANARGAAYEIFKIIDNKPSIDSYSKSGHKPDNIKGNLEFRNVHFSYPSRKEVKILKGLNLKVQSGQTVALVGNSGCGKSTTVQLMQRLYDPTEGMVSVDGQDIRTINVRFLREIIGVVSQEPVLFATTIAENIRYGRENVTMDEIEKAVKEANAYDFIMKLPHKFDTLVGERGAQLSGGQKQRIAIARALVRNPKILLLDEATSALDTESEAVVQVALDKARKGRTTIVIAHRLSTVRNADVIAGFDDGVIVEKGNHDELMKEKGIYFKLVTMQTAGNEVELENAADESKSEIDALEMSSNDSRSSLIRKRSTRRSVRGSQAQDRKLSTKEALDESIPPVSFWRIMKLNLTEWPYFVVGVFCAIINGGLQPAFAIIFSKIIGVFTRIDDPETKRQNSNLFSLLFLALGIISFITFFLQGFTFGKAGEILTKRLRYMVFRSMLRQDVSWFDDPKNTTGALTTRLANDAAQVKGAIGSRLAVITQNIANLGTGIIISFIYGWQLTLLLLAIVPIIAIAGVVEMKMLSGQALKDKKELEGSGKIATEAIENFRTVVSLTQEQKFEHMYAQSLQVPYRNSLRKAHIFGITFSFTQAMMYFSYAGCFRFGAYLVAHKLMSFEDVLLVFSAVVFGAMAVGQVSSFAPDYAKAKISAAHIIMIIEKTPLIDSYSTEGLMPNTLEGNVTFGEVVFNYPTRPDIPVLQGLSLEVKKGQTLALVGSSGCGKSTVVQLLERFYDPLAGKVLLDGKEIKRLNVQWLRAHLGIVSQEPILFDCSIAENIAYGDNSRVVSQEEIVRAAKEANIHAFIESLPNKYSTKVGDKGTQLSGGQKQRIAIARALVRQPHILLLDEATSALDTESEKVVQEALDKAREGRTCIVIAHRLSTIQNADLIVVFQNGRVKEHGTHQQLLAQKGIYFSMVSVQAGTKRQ

[20] = MITF Orthogonal Assay: SK-MEL-5 CTG Assay Measured in Cell-Based System Using Plate Reader - 2084-02_Inhibitor_Dose_DryPowder_Activity_Set7.; type: functional
[21] = MITF: Counter assay: A375 proliferation Measured in Cell-Based System Using Plate Reader - 2084-03_Inhibitor_Dose_DryPowder_Activity_Set8.; type: functional; conditions: A-375
Prothrombin = Prothrombin (Homo sapiens, UniProt P00734); test: Thrombin 1536 HTS Dose Response Confirmation. [Related pubchem assays: 1046 (Thrombin 1536 HTS; hits were confirmed in this assay)]; type: functional
[22] = molecular target: T2, Polyadenylate-binding protein 1 (Homo sapiens, UniProt P11940); test: MLLE domain peptide-binding blockers, IC50 – biochemical, fluorescence polarization, FITC-PAM2 peptide, dose response (AID 602259); type: functional; conditions: read-out: IC50_Mean
T2 sequence (P11940 whole entry, the tested form may be a part): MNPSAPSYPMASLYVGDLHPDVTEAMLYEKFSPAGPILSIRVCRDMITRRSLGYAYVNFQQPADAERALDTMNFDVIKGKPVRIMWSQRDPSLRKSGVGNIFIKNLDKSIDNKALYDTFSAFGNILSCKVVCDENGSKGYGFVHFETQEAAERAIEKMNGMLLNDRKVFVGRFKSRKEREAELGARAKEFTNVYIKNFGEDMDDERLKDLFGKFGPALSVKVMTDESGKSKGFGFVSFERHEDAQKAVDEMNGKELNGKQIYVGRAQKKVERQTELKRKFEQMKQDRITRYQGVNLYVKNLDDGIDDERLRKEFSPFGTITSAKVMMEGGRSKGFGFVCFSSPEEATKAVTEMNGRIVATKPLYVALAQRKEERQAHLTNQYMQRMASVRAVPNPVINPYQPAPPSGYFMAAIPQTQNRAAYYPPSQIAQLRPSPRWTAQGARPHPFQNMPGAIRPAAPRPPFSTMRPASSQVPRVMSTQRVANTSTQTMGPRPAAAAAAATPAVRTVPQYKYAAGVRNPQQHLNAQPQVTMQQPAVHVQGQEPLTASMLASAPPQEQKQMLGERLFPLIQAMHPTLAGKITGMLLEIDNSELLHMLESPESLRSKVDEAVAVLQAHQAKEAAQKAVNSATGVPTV

[23] = molecular target: T2, Polyadenylate-binding protein 1; test: MLLE binding blockers, Cy5 peptide tracer – biochemical, fluorescence polarization, Cy5-PAM2 peptide, secondary, miRNA deadenylation inhibitor project, dose response (AID 602260); type: functional; conditions: read-out: IC50_Mean
[24] = molecular target: Fructose-bisphosphate aldolase (Mycobacterium tuberculosis, UniProt P9WQA3); test: Fluorescence-based biochemical high throughput dose response assay for inhibitors of the fructose-bisphosphate aldolase (FBA) of M. tuberculosis.; type: functional
Fructose-bisphosphate aldolase, sequence (P9WQA3 whole entry): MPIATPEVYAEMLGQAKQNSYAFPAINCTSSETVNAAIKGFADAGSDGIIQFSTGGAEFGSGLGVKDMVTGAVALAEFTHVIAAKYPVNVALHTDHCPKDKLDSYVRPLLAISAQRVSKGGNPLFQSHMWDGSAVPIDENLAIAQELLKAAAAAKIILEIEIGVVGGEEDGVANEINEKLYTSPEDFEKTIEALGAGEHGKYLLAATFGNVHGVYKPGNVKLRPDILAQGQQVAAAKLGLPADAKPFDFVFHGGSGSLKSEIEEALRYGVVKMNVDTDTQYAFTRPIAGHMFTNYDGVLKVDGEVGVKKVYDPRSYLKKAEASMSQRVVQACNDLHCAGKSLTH

[25] = A cytotoxicity screen of small molecule inhibitors of the PhoP region in Salmonella typhi identified in the primary screen. [Related pubchem assays: 1850, 1864, 1985 ]; type: functional
[26] = molecular target: Long-chain-fatty-acid--AMP ligase FadD28 (Mycobacterium tuberculosis, UniProt P9WQ59); test: Fluorescence polarization aasay to screen for inhibitors that compete for the binding of FadD28 to a bisubstrate Measured in Biochemical System Using Plate Reader - 2147-01_Inhibitor_Dose_CherryPick_Activity.; type: functional, Mycobacterium tuberculosis H37Rv
Long-chain-fatty-acid--AMP ligase FadD28, sequence (P9WQ59 whole entry): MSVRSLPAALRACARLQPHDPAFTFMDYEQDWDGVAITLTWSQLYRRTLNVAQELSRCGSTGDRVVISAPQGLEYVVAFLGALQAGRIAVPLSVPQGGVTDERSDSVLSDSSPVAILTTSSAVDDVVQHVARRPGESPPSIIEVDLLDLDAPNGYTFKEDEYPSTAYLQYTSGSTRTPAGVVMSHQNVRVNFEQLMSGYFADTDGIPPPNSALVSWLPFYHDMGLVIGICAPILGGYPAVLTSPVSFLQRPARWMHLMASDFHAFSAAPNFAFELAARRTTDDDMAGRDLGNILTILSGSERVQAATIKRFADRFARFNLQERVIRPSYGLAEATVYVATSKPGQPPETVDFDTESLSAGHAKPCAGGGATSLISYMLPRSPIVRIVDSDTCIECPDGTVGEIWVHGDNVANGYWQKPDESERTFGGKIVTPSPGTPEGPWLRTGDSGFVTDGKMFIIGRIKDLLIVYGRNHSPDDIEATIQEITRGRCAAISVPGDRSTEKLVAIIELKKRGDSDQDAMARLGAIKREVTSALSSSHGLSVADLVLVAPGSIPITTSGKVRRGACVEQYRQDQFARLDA

[27] = molecular target: Metabotropic glutamate receptor 5 (Rattus norvegicus, UniProt P31424); test: Identification of a glycine sulfonamide based non-MPEP site positive allosteric potentiator (PAM) of mGlu5 (calcium_assay).; type: functional
Metabotropic glutamate receptor 5, sequence (P31424 whole entry): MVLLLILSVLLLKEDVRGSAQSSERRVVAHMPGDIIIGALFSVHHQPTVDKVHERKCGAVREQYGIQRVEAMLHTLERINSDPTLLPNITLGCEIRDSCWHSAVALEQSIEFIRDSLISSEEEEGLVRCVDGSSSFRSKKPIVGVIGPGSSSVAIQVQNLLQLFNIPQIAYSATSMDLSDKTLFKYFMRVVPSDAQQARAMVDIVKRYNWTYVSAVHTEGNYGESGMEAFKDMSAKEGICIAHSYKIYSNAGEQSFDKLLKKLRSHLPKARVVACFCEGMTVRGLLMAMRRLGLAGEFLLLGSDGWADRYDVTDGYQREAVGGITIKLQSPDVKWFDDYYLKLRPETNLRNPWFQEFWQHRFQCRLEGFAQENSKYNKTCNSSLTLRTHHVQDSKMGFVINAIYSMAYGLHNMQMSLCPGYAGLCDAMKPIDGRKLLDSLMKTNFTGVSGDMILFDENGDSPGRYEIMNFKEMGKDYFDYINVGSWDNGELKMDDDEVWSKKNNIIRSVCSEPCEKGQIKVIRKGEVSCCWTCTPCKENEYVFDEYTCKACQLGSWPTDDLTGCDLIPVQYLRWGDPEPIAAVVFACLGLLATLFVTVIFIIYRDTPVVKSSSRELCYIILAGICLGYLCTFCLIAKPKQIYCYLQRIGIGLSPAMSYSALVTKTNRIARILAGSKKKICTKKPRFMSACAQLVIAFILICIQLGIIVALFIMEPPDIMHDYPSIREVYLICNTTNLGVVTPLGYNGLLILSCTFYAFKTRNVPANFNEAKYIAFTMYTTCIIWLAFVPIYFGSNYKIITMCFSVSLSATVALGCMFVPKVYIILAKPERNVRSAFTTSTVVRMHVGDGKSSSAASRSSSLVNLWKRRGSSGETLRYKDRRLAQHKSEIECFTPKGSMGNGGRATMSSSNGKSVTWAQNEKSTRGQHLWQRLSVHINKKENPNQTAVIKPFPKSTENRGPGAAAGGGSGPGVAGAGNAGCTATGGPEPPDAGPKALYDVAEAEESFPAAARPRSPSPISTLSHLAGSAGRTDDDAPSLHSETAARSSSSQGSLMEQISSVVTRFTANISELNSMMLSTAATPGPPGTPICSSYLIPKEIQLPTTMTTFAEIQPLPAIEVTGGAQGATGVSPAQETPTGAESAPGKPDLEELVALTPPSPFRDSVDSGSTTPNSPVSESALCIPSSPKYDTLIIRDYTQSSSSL

cells [28] = conditions: HEK293
[29] = viability loss in HepG2 liver cells – cell-based, ATP luminescence, cherry-pick, set 6, cytotoxicity control, dose response (AID 1053125); type: functional
cells [30] = conditions: A549

C[C@H](CO)N1C[C@H](C)[C@H](CN(C)S(=O)(=O)c2ccc(F)cc2)Oc2ccc(NS(C)(=O)=O)cc2C1=O
AC50 [1]: 1.19 µM (active)

Cc1ccc(S(=O)(=O)Nc2ccc3c(c2)C(=O)N([C@H](C)CO)C[C@@H](C)[C@H](CN(C)Cc2ccc(C(F)(F)F)cc2)OCCCC[C@H](C)O3)cc1
AC50 [2]: 14.9 µM (active)
AC50 [3]: 22 µM (active)
AC50 [4]: 35.5 µM (active)
AC50 [5]: 22.1 µM (active)
AC50 [6]: 39.7 µM (active)
AC50 [7]: 44.2 µM (active)
AC50 [8]: 27 µM (active)
AC50 [9]: 29.4 µM (active)
AC50 (Paired box protein Pax-8): 3.93 µM (active)
AC50 [10]: 31 µM (active)

CCC(C)c1ccc(S(=O)(=O)N2CCN(C(=O)c3ccc(Cl)c(S(=O)(=O)N4CCOCC4)c3)CC2)cc1 (configuration not stated)
AC50 [11]: 6.16 µM (active)
AC50 [12]: 5.32 µM (active)
AC50 [13]: 61.3 µM (active)
AC50 [14]: > 70 µM (inactive)

CC(C)[C@H](NC(=O)c1ccccc1)C(=O)N1CCC[C@H]1C(=O)NCCc1ccccc1Cl
IC50 [15]: 1.2 µM (active)
EC50 [16]: 0.754 µM (active)
EC50 (cells [17]): > 29.9 µM (inactive)
IC50 (cells [18]): > 29.9 µM (inactive)

Cc1ccc(-c2cc3nc(-c4ccco4)cc(N4CCN(Cc5ccoc5)CC4)n3n2)cc1
EC50 [19]: 0.01411 µM

CC1=C(N)C(=O)c2ccccc2C1=O
AC50 [20]: 3.74 µM (active)
AC50 [21]: > 70 µM (inactive)

O=C(CSc1nc2ccccc2o1)c1cc2ccccc2oc1=O
IC50 (Prothrombin): > 50 µM (inconclusive)
IC50 [22]: > 66 µM (inactive)
IC50 [23]: > 66 µM (inactive)
IC50 [24]: > 10 µM (inactive)
EC50 [25]: > 50 µM (active)

CCc1cccc2c(C(=O)CSc3nncn3-c3ccc(OC)cc3)c[nH]c12
AC50 [26]: > 100 µM (inactive)

CC(C(=O)Nc1cc(F)cc(C#N)c1)N(c1ccccc1Cl)S(C)(=O)=O (configuration not stated)
pEC50 [27]: 5.26

O=C(NCc1cc(C(F)(F)F)ccc1Cl)c1cccc2c1C(=O)c1ccc(Cl)cc1S2(=O)=O
AC50 (cells [28]): > 52 µM (inactive)
AC50 [29]: > 52 µM (inactive)
AC50 (cells [30]): 37.6 µM (active)
